The source of these data is PubChem BioAssay AID1199 (EPA DSSTox, 2008).

Structures are written as SMILES. Active and inactive are the calls of the source.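 How the source made its calls: active means a tumour-causing dose and a tumour site recorded for mice in at least one sex group; inconclusive means only government mouse studies exist and were judged inadequate; inactive means mouse studies exist but none gave tumours.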

The test system of the data set is mouse carcinogenicity bioassay, TD50 from CPDB. In words: DSSTox (CPDBAS) Carcinogenic Potency Database Summary Mouse Bioassay Results. The method in brief: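 Values are TD50 carcinogenic potencies from mouse chronic bioassays, taking the most positive result for each sex-species. Sources are published literature and NCI/NTP studies; target sites reflect author-reported positive findings.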

[1] abbreviates: TargetSites_Mouse_Female: liver.
Where [2] appears, read: TD50_Mouse_Note: no positive results, TargetSites_Mouse_Female: no positive results.
Setting [3] is: TD50_Mouse_Note: TD50 is harmonic mean of more than one positive test, TargetSites_Mouse_Female: liver.
[4] abbreviates: TD50_Mouse_Note: TD50 is harmonic mean of more than one positive test, TargetSites_Mouse_Female: stomach.
The mark [5] stands for this setting: TD50_Mouse_Note: no positive results.
The mark [6] stands for this setting: TargetSites_Mouse_Female: no positive results.

Take `NC(=O)Cc1c([O-])on[n+]1Cc1ccccc1`: the Potency under setting [1] was 0.0437 mmol/kg/day.
In the case of `S=C(NC1CCCCC1)NC1CCCCC1`, the outcome under setting [2] was “inactive; no positive results”.
Take `Cc1c([N+](=O)[O-])c(C)c([N+](=O)[O-])c(C(C)(C)C)c1[N+](=O)[O-]`: the Potency under setting [3] was 0.427 mmol/kg/day.
Take `C[C@]12C=CC(=O)C=C1CC[C@@H]1[C@@H]2C(=O)C[C@@]2(C)[C@H]1CC[C@]2(O)C(=O)CO`: under setting [2], the outcome was “inactive; no positive results”.
Consider `FC(F)=C(F)F`, for which the Potency (TD50_Mouse_Note: TD50 is harmonic mean of more than one positive test, TargetSites_Mouse_Female: hematopoietic system, liver, vascular system) was 0.719 mmol/kg/day.
On to `O=S(=O)(O)O`, for which the Potency (TD50_Mouse_Note: TD50 is harmonic mean of more than one positive test, greater than ten-fold variation among TD50 values for positive res, TargetSites_Mouse_Female: liver, lung) is 0.0583 mmol/kg/day.
`ClC1=C(Cl)[C@]2(Cl)[C@@H]3[C@@H]4C[C@@H]([C@H]5O[C@@H]45)[C@@H]3[C@@]1(Cl)C2(Cl)Cl`: for the setting “TD50_Mouse_Note: TD50 is harmonic mean of more than one positive test, harmonic mean of TD50 includes a value for upper 99% confidence li, TargetSites_Mouse_Female: liver”, the Potency is 0.00239 mmol/kg/day.
Take `COC(=O)c1ccc(C(=O)OC)cc1`: the outcome under setting [2] is “inactive; no positive results”.
In the case of `ClC(Cl)C(Cl)(Cl)Cl`, the Potency under setting [3] is 0.283 mmol/kg/day.
As for `CCN(CC)CC#CC(C)(C)OC(=O)C(O)(c1ccccc1)C1CCCCC1` (stereo not given), the outcome under setting [2] was “inactive; no positive results”.
The same measure, in the same setting: for `O.O=S(=O)([O-])[O-].[Mn+2]` the value was “inactive; no positive results”; for `CCCCNC(=O)NS(=O)(=O)c1ccc(C)cc1`, “inactive; no positive results”.
`COc1cc(N=Nc2ccccc2)ccc1N`: the Potency under setting [1] is 0.265 mmol/kg/day.
For `OO`, the Potency (TargetSites_Mouse_Female: small intestine) is 222 mmol/kg/day.
In the case of `Cl[C@H]1OCCO[C@@H]1Cl`, under setting [2], the outcome was inactive.
In the case of `O=NN1CCN(N=O)CC1`, under setting [4], the Potency is 0.025 mmol/kg/day.
With `c1ccc2c(c1)ccc1cc3c(ccc4ccccc43)cc12`, the Potency is 0.0211 mmol/kg/day.
Take `Cn1c(=O)c2[nH]cnc2n(C)c1=O`: the outcome under setting [2] was “inactive; no positive results”.
Same read-out and setting: the entry for `CC(C)O` is “inactive; no positive results”.
Consider `C=CCNNCC=C`, for which the Potency (TD50_Mouse_Note: TD50 is harmonic mean of more than one positive test, TargetSites_Mouse_Female: lung) was 0.183 mmol/kg/day.
Take `O=C(O)Cc1cccc2ccccc12`: the outcome under setting [2] was “inactive; no positive results”.
The same measure, in the same setting: the entry for `CC1CC(C)(C)CC(OOC(C)(C)C)(OOC(C)(C)C)C1` (stereo not given) is “inactive; no positive results”; for `COP(=S)(OC)Oc1ccc(SC)c(C)c1` it is “inactive; no positive results”.
As to `C=CCc1ccc(OC)cc1`, the Potency under setting [1] was 0.35 mmol/kg/day.
As for `CCNN`, the Potency (TD50_Mouse_Note: TD50 is harmonic mean of more than one positive test, TargetSites_Mouse_Female: lung, vascular system) was 0.0679 mmol/kg/day.
In the case of `CCSCCC(N)C(=O)O` (stereo not given), the Potency (TD50_Mouse_Note: TD50 is harmonic mean of more than one positive test, greater than ten-fold variation among TD50 values for positive res, TargetSites_Mouse_Female: liver) is 0.437 mmol/kg/day.
For the compound `CN(C)C(=S)S`, under setting [2], the outcome was “inactive; no positive results”.
Still for that read-out and setting: the entry for `CC1=C(/C=C/C(C)=C/C=C/C(C)=C/C(=O)O)C(C)(C)CCC1` is “inactive; no positive results”.
On to `ClCc1cccnc1`, for which the Potency under setting [4] is 1.4 mmol/kg/day.
As for `CCBr`, under “TargetSites_Mouse_Female: uterus”, the Potency is 4.91 mmol/kg/day.
For the compound `O=c1ccc(=O)[nH][nH]1`, under setting [2], the outcome is “inactive; no positive results”.
On to `COC(=O)C1=C(C)NC(C)=C(C(=O)OCCc2ccc(N3CCN(C(c4ccccc4)c4ccccc4)CC3)cc2)C1c1cccc([N+](=O)[O-])c1` (stereo not given), for which, under setting [2], the outcome is “inactive; no positive results”.
Turning to `CC(C)(c1ccc(O)cc1)c1ccc(O)cc1`, the outcome under setting [2] is “inactive; no positive results”.
In the case of `O=[Se]=O`, under setting [5], the outcome was inactive.
As for `Nc1cc(S(=O)(=O)[O-])cc2cc(S(=O)(=O)[O-])c(N=Nc3ccc(-c4ccc(N=Nc5c(S(=O)(=O)[O-])cc6cc(S(=O)(=O)[O-])cc(N)c6c5O)c(O)c4)cc3O)c(O)c12.[Cu].[Cu].[Na+].[Na+].[Na+].[Na+]`, the Potency under setting [3] is 0.788 mmol/kg/day.
Consider `O=C/C=C/O`, for which the Potency under setting [1] is 0.15 mmol/kg/day.
`CCOc1ccc(NC(C)=O)cc1N`: the Potency under setting [6] was 10.7 mmol/kg/day.
Turning to `C=CC=C`, the Potency (TD50_Mouse_Note: TD50 is harmonic mean of more than one positive test, greater than ten-fold variation among TD50 values for positive res, TargetSites_Mouse_Female: harderian gland, hematopoietic system, liver, lung, mammary gland, ovary, stomach, vascular system) is 0.257 mmol/kg/day.
In the case of `Cc1c(N)nc(C)c2c1[nH]c1ccccc12`, under setting [3], the Potency was 0.15 mmol/kg/day.
For `O1[As]2O[As]3O[As]1O[As](O2)O3`, under setting [2], the outcome was “inactive; no positive results”.
On to `Cc1c(N(C)C)c(=O)n(-c2ccccc2)n1C`, for which the outcome under setting [2] is “inactive; no positive results”.
Turning to `CC(Oc1cc(Cl)ccc1Cl)C(=O)O` (stereo not given), under setting [2], the outcome is “inactive; no positive results”.
On the same count and under the same terms, for `ClC1=C(Cl)C2(Cl)C3C(Cl)OC(Cl)C3C1(Cl)C2(Cl)Cl` (stereo not given) the value was “inactive; no positive results”.
Regarding `Cn1c(N)nc2c3cccnc3ccc21`, where the note is “TD50_Mouse_Note: TD50 is harmonic mean of more than one positive test, TargetSites_Mouse_Female: liver, lung, stomach”, the Potency is 0.0989 mmol/kg/day.
For `CC[C@H](OC(C)=O)C(C[C@H](C)N(C)C)(c1ccccc1)c1ccccc1`, the outcome under setting [2] was “inactive; no positive results”.
As for `Oc1ccc2ccccc2c1N=Nc1ccccc1`, the outcome under setting [2] was “inactive; no positive results”.
Turning to `Cc1ccc(N=Nc2c(O)c(S(=O)(=O)O)cc3ccc(S(=O)(=O)O)cc23)c(C)c1`, under setting [3], the Potency is 1.49 mmol/kg/day.
Take `Cc1cc(C(C)(C)C)c(O)c(C(C)(C)C)c1`: the Potency (TD50_Mouse_Note: TD50 is harmonic mean of more than one positive test, TargetSites_Mouse_Female: no positive results) was 2.96 mmol/kg/day.
Regarding `Nc1nc(N)c2nc(-c3ccccc3)c(N)nc2n1`, the Potency under setting [3] was 0.238 mmol/kg/day.
For the compound `FC(F)Cl`, the outcome under setting [2] was “inactive; no positive results”.
Turning to `ClCOCCCCOCCl`, the outcome under setting [2] was inactive.
Same read-out and setting: for `CCNC(=S)NCC` the value was “inactive; no positive results”.
For the compound `O.O.O.O.O.O.O.O.O=S(=O)([O-])[O-].O=S(=O)([O-])[O-].O=S(=O)([O-])[O-].[Cd+2].[Cd+2].[Cd+2]`, the outcome under setting [5] is “inactive; no positive results”.
Consider `ClC1(Cl)C2(Cl)C3(Cl)C4(Cl)C(Cl)(Cl)C5(Cl)C3(Cl)C1(Cl)C5(Cl)C24Cl` (stereo not given), for which the Potency under setting [3] is 0.00266 mmol/kg/day.
On to `C=CC`, for which the outcome under setting [2] was “inactive; no positive results”.
Same read-out and setting: the entry for `NS(=O)(=O)c1cc2c(cc1Cl)NCNS2(=O)=O` is “inactive; no positive results”.
As for `C=O`, under setting [6], the Potency was 1.46 mmol/kg/day.
For `c1ccc(-c2ccccc2)cc1`, the outcome under setting [2] is “inactive; no positive results”.
For the compound `CCc1ccc(C(c2ccc(CC)cc2)C(Cl)Cl)cc1`, the outcome under setting [2] was “inactive; no positive results”.
With `Cc1cc(-c2ccc(N)c(C)c2)ccc1N`, the Potency under setting [6] is 0.1 mmol/kg/day.
In the case of `CC[C@H]1CN2CCc3cc(OC)c(OC)cc3[C@@H]2C[C@@H]1C[C@H]1NCCc2cc(OC)c(OC)cc21`, for the setting “TD50_Mouse_Note: only experiment is NCI/NTP bioassay inadequate, TargetSites_Mouse_Female: NTP bioassay inadequate”, the outcome is “ntp bioassay inadequate”.
In the case of `COC(C(=O)O)c1ccccc1` (stereo not given), the outcome under setting [2] was “inactive; no positive results”.
As for `Oc1ccccc1O`, the Potency under setting [4] is 2.22 mmol/kg/day.
On to `O=c1[nH]c(=O)n(C2CCCO2)cc1F` (stereo not given), for which the outcome under setting [2] was “inactive; no positive results”.
As for `CC(O)c1ccccc1` (stereo not given), the outcome under setting [2] was “inactive; no positive results”.
`O=C(O)c1ccc([N+](=O)[O-])cc1`: under setting [2], the outcome is “inactive; no positive results”.
Regarding `Nc1ccc(-c2ccc(F)cc2)cc1`, the Potency under setting [3] was 0.00609 mmol/kg/day.
In the case of `O=[N+]([O-])/C=C/c1ccccc1`, the outcome under setting [2] was “inactive; no positive results”.
Regarding `O=S(=O)(Oc1ccc(Cl)cc1)c1ccc(Cl)cc1`, the outcome under setting [2] was “inactive; no positive results”.
For the compound `Cc1cc(O)c2c(c1O)C(=O)C13C(=C2O)C(=O)C2C(O)C1C1C(O)C3C(=O)C3=C(O)c4c(O)cc(C)c(O)c4C(=O)C321` (stereo not given), under setting [3], the Potency was 0.0324 mmol/kg/day.
As for `CC1CO1` (stereo not given), for the setting “TD50_Mouse_Note: TD50 is harmonic mean of more than one positive test, TargetSites_Mouse_Female: nasal cavity”, the Potency was 15.7 mmol/kg/day.
Regarding `CCCCN(CCCC)C(=S)[S-].CCCCN(CCCC)C(=S)[S-].[Ni+2]`, under setting [2], the outcome is “inactive; no positive results”.
Regarding `c1ccc2c(c1)[nH]c1ccccc12`, the Potency (TD50_Mouse_Note: TD50 is harmonic mean of more than one positive test, TargetSites_Mouse_Female: liver, stomach) was 0.981 mmol/kg/day.
For `O=C(O)C1[O][Sb]2[O]C(=O)C([O]2)C(C(=O)O)[O][Sb]2[O]C(=O)C1[O]2` (stereo not given), where the note is “TargetSites_Mouse_BothSexes: no positive results”, the result was inactive.
Turning to `CCCCC(C)(O)C/C=C/[C@H]1[C@H](O)CC(=O)[C@@H]1CCCCCCC(=O)OC` (stereo not given in full), under setting [2], the outcome is “inactive; no positive results”.
As for `CCOC(=O)[C@H](CCc1ccccc1)N[C@@H](C)C(=O)N1Cc2ccccc2C[C@H]1C(=O)O`, the outcome under setting [2] was “inactive; no positive results”.
Consider `ClC1=C(Cl)C(Cl)(Cl)C(Cl)=C1Cl`, for which the outcome under setting [2] was “inactive; no positive results”.
For the compound `Nc1ccc(N)c2c1C(=O)c1c(N)ccc(N)c1C2=O`, the outcome under setting [2] was “inactive; no positive results”.
On to `CCCN(CCC)c1c([N+](=O)[O-])cc(C(F)(F)F)cc1[N+](=O)[O-]`, for which, for the setting “TargetSites_Mouse_Female: liver, lung, stomach”, the Potency was 0.984 mmol/kg/day.
With `CN(C)C(=O)Nc1cccc(C(F)(F)F)c1`, the outcome under setting [2] is “inactive; no positive results”.
As for `COc1ccc([C@@H]2CC(=O)c3c(O)cc(O[C@@H]4O[C@H](CO[C@@H]5O[C@@H](C)[C@H](O)[C@@H](O)[C@H]5O)[C@@H](O)[C@H](O)[C@H]4O)cc3O2)cc1OC`, under setting [2], the outcome was “inactive; no positive results”.
The same measure, in the same setting: the entry for `Cc1ccc2ccccc2c1` is “inactive; no positive results”; for `OC[C@H]1O[C@H](O[C@]2(CCl)O[C@H](CCl)[C@@H](O)[C@@H]2O)[C@H](O)[C@@H](O)[C@H]1Cl` it is “inactive; no positive results”.
In the case of `NNc1nc(-c2ccc(N)cc2)cs1`, the Potency (TargetSites_Mouse_Female: hematopoietic system) was 0.0548 mmol/kg/day.
With `Cc1ccc(N=C=O)cc1N=C=O`, the Potency (TargetSites_Mouse_Female: liver, vascular system) is 1.44 mmol/kg/day.
